Where “and” joins values, the source holds several entries; their conditions need not be identical. Equal values may be shown once.
What was measured:
[1] = test system: polyvalent resistant (CH strain) houseflies; experiment: whole plant or invertebrate; format: in vivo
Method: The effect of O-(2-propynyl) oximes with Dimetilan and with GS 13798 was obtained from tests on polyvalent resistant (CH strain) houseflies that had been chilled and to the dorsal region of which was applied an acetone solution of synergist and insecticide at a ratio of two to one. Duplicate tests were performed using 10 four to five-day old female houseflies per test. After dosage, the flies were put in a plastic petri dish with cotton soaked in a sugar-water solution. These doses of insecticide used without synergist caused 10-40% mortality.
(§1) In Table IX, and in the tables following it, the doses of topically applied insecticides and of synergists unless otherwise noted are expressed as micrograms per fly (μg/fly).
The effect of compounds II-C, II-D and II-E with Dimetilan and GS 13798 was determined, following the procedure of Example 5, from tests on polyvalent resistant (CH strain) houseflies. These doses of insecticide used without synergist caused 10-40% mortality.
(§2) The synergistic effect with GS 13005 of compounds I-A, I-B, I-D, I-E, I-F, I-G and I-I was determined from topical application tests to IN/WHO strain, Rutgers A strain and polyvalent CH strain houseflies using the procedures of Example 5. The percent kills of the IN/WHO strain flies after 24 hours are shown in Table XXVIII; of the Rutgers A strain, in Table XXIX; and of the polyvalent CH strain, in Table XXX. The doses of insecticide alone to the CH strain files caused 10-40% mortality.
(§3) The synergistic effect with Diazinon and GS 13005 of various of the benzyl 2-propynyl ethers identified in Tables II and IIa was determined by topical application tests on IN/WHO strain, and Rutgers A strain and polyvalent, resistant, CH strain houseflies using the procedures of Example 5. The percent kills after 24 hours of IN/WHO strain flies are shown in Table XXXI; of Rutgers A strain flies, in Table XXXII; and of CH strain flies, in Table XXXIII. The doses of insecticide alone to the CH strain flies caused 10-40% mortality.
The synergistic effect with pyrethrum of various synergist compounds was determined by topical application tests on polyvalent, resistant CH strain houseflies following the procedure of Example 5. Application of the insecticide alone caused 10-40% mortality.

[2] = test system: IN/WHO strain house flies; experiment: topical application, percent kill after 24 hours, susceptible IN/WHO strain; format: in vivo, female)
Method: as §1
(§4) The synergistic effect of O-(2-propynyl) oximes with mobam was determined from topical application tests on susceptible, female, IN/WHO strain house flies and from tests on resistant, female, Rutgers A strain house flies. The synergist and insecticide were dissolved in ACS Grade acetone in such quantities that a 1.0 μ liter volume applied to the thorax of 3-to-5 day old CO2 -anesthetized female adult house flies contained the desired dosage. After being treated, the flies were confined, 10 to a plaster petri dish, with 3-5 dishes/treament, and held for 24-hr. observation of mortality. Reconstituted skim milk on cotton dental wicks was provided during the holding period. The percent kills after 24 hours are shown in Table X for the IN/WHO strain and Table XI for the Rutgers A strain.
(§5) The synergistic effect of benzyl 2-propynyl ethers with mobam was determined from topical application tests on IN/WHO and Rutgers A strain houseflies, following the procedure of Example 5. The percent kills after 24 hours are shown in Table XIV for the IN/WHO strain and in Table XV for the Rutgers A strain.
The effects of varying the insecticide dose and the synergist-insecticide ratio are further illustrated, with synergist compounds II-D, II-E, II-F and Mobam insecticide, in Tables XVI, XVII and XVIII. […]
The effect on IN/WHO flies of synergist compound IV-C, identified in Table IV, with mobam was determined by the topical application procedure of Example 5. […]
as §2
as §3, with “mortality. […]” for “mortality.”
(§6) The synergistic effect on IN/WHO strain flies and Rutgers A strain flies of compound IV-C with GS 13005 and with Diazinon was determined by the topical application procedure of Example 5. The percent kills of IN/WHO strain flies after 24 hours are shown in Tables XXXVI and XXXVII; the percent kills of Rutgers A strain flies are shown in Tables XXXVIII and XXXIX.

[3] = test system: Rutgers A strain house flies; experiment: topical application, percent kill after 24 hours, resistant Rutgers A strain; format: in vivo, female)
Method: as §1, §4, §5
The synergistic effect with Diazinon of compounds I-B, I-D, I-F, I-G, I-H and I-I, identified in Tables I and Ia, was determined from topical application tests on IN/WHO strain houseflies and on Rutgers A strain houseflies by the procedure of Example 5. The percent kills after 24 hours are shown in Table XXV for the IN/WHO strain and Table XXVI for the Rutgers A strain.
as §2, §3, §6

[4] = test system: Wilson strain house flies; format: in vivo, Wilson strain (susceptible); settings: for Contact Synergistic Ratio, Pyrolan: LC50 pyrolan alone / LC50 with synergist, synergist to insecticide 5:1 by weight; for Contact Synergistic Ratio, Carbaryl: in vivo
Method: The required solutions of the insecticide and of the synergist compound were prepared in acetone at a concentration of 1 milligram per milliliter. One-pint wide mouth glass jars were coated with the appropriate insecticide-synergist combination by rolling the jars containing aliquots of the appropriate solutions diluted to three milliliters with acetone to deposit, by evaporation, a film of the test materials. The flies were transferred under carbon dioxide anesthesia and held in the jar at room temperature. Perforated aluminum foil was used to cover the jars and to hold cotton saturated with 10% sugar solution. Counts were made at intervals, but the recorded mortality was based on 24-hour kill, rather than knockdown. All prostrate non-moving flies were considered dead. A determination was then made of the contact synergistic ratio [SR], which is the ratio of the LC50 of insecticide alone to the LC50 of the insecticide when applied together with the synergist. The LC50 of the insecticide was estimated from a log-probit plot of percent kill versus dosage. […] The LC50 of the combination of insecticide and synergist was determined at a synergist to insecticide parts by weight ratio of five to one.

[5] = test system: Swiss albino, white male mice; experiment: acute toxicity and synergism of acute toxicity in mice; format: in vivo; settings: 48 hours; for Lethality, Dimetilan alone (number of mice dead) / number of mice dead, with Dimetilan: eight mice
Method: To determine the acute toxicity of dimetilan alone, eight dosage levels of Dimetilan, ranging from 4 to 32 mg per kg were applied to eight, Swiss, albino, white, male mice per dosage level. The mice weighed approximately 23 to 27 grams and were five to six weeks old. The Dimetilan was administered intraperitoneally in 0.1 ml of corn oil one hour after the administration of the same dose of corn oil alone.
To determine the acute toxicity of the synergist alone, various synergists were administered intraperitoneally at a dose of 1000 mg/kg to each of a group of eight mice. The number of animals dead at the end of 72 hours is reported in the left hand column of Table XXXXVI.
The synergism of the acute toxicity of Dimetilan by various synergists was determined by tests on Swiss albino, white male mice aged five to six weeks and weighing 23 to 27 grams. The synergists and insecticides were dissolved in corn oil and the drugs were dissolved in distilled water. All compounds were administered intraperitoneally by injection in the lower quadrent of the abdomen. The synergist was administered in 0.1 ml of corn oil one hour prior to administration of the insecticide. Eight mice were treated, per dosage, with each synergist. The mice were watched for a minimum of 6 hours while held in a glass jar with bedding individually after intraperitoneal injection of the test solutions. Lethality was noted, the animals were weighed and transferred in cages, and food and water were supplied. Control mice were given 0.1 ml of corn oil at the time of administration of the synergist to the test mice and 0.1 ml corn oil plus Dimetilan at the time of administration of the insecticide to the test mice.
By the same procedure, the synergism of acute toxicity of GS 13005, Secobarbital and 6-dimethylamino-4,4-diphenyl-3-heptanone [Methadone] was determined.

male mice = experiment: extension of sleeping time of depressant drugs by synergists; format: in vivo, male mice (Swiss albino white); settings: for Mean Sleeping Time, Noludar / Relative Sleeping Time, Noludar: Noludar 110 mg/kg; for Relative Sleeping Time, Noludar / Relative Sleeping Time, Secobarbital: treated/control; for Mean Sleeping Time, Secobarbital / Relative Sleeping Time, Secobarbital: Secobarbital 37 mg/kg
Method: The selectivity of the synergist compounds of this invention is illustrated by the results of sleeping-time extension tests and of acute toxicity tests on Swiss albino white male mice.
The effect of various synergist compounds on sleeping time of sodium secobarbital [Secobarbital] and of 3,3-diethyl-5-methyl-2,4-dioxypiperidine [Noludar] was determined by administering the drug, with and without synergist, to approximately 38-day old male mice weighing from 25 to 30 grams. Synergists were administered in each of two doses, 74.0 mg/kg (dilution being 2.0 mg/0.1 ml corn oil), and 110.0 mg/kg (dilution 3.0 mg/0.1 ml oil). Secobarbital was administered at a dose of 37.0 mg/kg (dilution 1.0 mg/0.1 ml water). Noludar was administered at a dose of 110.0 mg/kg (dilution 3.0 mg/0.1 ml water). The synergist was administered one hour prior to administration of the Secobarbital or Noludar. Secobarbital and Noludar sleeping times were obtained for both the control (drug only) and the treated (synergist plus drug) mice by noting the time lapse between the administration of the drug and the recovery of the righting reflex, i.e. when the animal regains conciousness and can walk up an inclined wooden tray with coordination. The relative sleeping time (R.S.) was noted. The R.S. is the extended sleeping time in the treated mice (synergist plus drug) divided by the sleeping time in the control mice (drug only). The mean sleeping time for the treated mice and the R.S. are shown on Table XXXXIV for various synergist compounds.

[6] = insecticide alone at the doses of the CH strain tables, 1440 min
[7] = Dimetilan 8 mg/kg, oil in place of synergist
[8] = synergist 110 mg/kg one hour prior
[9] = Dimetilan 8 + synergist 240 mg/kg i.p.

## CCOP(=S)(OCC)Oc1cc(C)nc(C(C)C)n1 [Diazinon, O,O-diethyl O-(2-isopropyl-4-methyl-6-pyrimidyl) phosphorothioate, reference compound]
[1]; house fly, in vivo, topical or ocular, 24 h
  mortality, insecticide used without synergist: 10-40%
[2]; Diazinon 0.02, synergist 0 μg/fly
  percent kill after 24 hours, Diazinon alone: 3%
[2]; Diazinon 0.03, synergist 0 μg/fly, 1440 min
  percent kill after 24 hours, Diazinon alone: 0% and 5%
[3]; Diazinon 1.0, synergist 0 μg/fly
  percent kill after 24 hours, Diazinon alone: 0%
[3]; Diazinon 1.5, synergist 0 μg/fly, 1440 min
  percent kill after 24 hours, Diazinon alone: 3% and 0%

## Cc1cc(OC(=O)N(C)C)nn1C(=O)N(C)C [Dimetilan, 1-(dimethylcarbamoyl)-5-methyl-3-pyrazolyl dimethylcarbamate, reference compound]
[4]; insecticide alone, common house fly
  lethality to the common house fly, in words: relatively lethal
[1]; [6]
  mortality, insecticide used without synergist: 10-40%
[2]; Dimetilan 0.031 μg/fly
  24 hour percent mortality, Dimetilan alone: 0%
[5]; 4.0 mg/kg i.p.
  Lethality, Dimetilan alone (number of mice dead): 0
[5]; 8.0 mg/kg i.p.
  Lethality, Dimetilan alone (number of mice dead): 0
[5]; 12.0 mg/kg i.p.
  Lethality, Dimetilan alone (number of mice dead): 1
[5]; 16.0 mg/kg i.p.
  Lethality, Dimetilan alone (number of mice dead): 3
[5]; 20.0 mg/kg i.p.
  Lethality, Dimetilan alone (number of mice dead): 4
[5]; 24.0 mg/kg i.p.
  Lethality, Dimetilan alone (number of mice dead): 7
[5]; 28.0 mg/kg i.p.
  Lethality, Dimetilan alone (number of mice dead): 8
[5]; 32.0 mg/kg i.p.
  Lethality, Dimetilan alone (number of mice dead): 8
[5]; [7]
  number of mice dead, Dimetilan control (0.1 ml oil), 80 mg/kg: 0
  number of mice dead, Dimetilan control (0.1 ml oil), 240 mg/kg: 0
[5]; i.p.
  dose level just below that at which Dimetilan alone showed lethality to the mice: 8 mg/kg

## CNC(=O)Oc1cccc2ccc(C)nc12 [GS 13798, 8-(2-methylquinolyl)-N-methylcarbamate, reference compound]
[1]; [6]
  mortality, insecticide used without synergist: 10-40%

## C#CCn1ncc2ccc(Cl)cc21 [III-D]
[4]
  Contact Synergistic Ratio, Pyrolan: 25
  Contact Synergistic Ratio, Carbaryl: 250
Male mice; [8]
  Mean Sleeping Time, Noludar: 45 min
  Mean Sleeping Time, Secobarbital: 55 min
Male mice; synergist 110 mg/kg
  Relative Sleeping Time, Noludar: 1.5
  Relative Sleeping Time, Secobarbital: 1.2
[5]; [9]
  number of mice dead, with Dimetilan: 1

## C#CCOC(c1ccc(Cl)cc1Cl)C(C)[N+](=O)[O-] (centres unmarked) [IV-A, 2-propynyl 1-(2,4-dichlorophenyl)-2-nitropropyl ether]
[4]
  Contact Synergistic Ratio, Pyrolan: 10
  Contact Synergistic Ratio, Carbaryl: 134
Male mice; [8]
  Mean Sleeping Time, Noludar: 78 min
Male mice; synergist 110 mg/kg
  Relative Sleeping Time, Noludar: 2.7
Male mice; synergist 74 mg/kg one hour prior
  Mean Sleeping Time, Secobarbital: 56 min
Male mice; synergist 74 mg/kg
  Relative Sleeping Time, Secobarbital: 2.3
[5]; Dimetilan 8 + synergist 80 mg/kg i.p.
  number of mice dead, with Dimetilan: 4
[5]; [9]
  number of mice dead, with Dimetilan: 7
